Active and inactive are the calls of the source.
How the values were obtained:
[1] = target: Intestinal-type alkaline phosphatase (Homo sapiens, UniProt P09923); experiment: Dose Response confirmation of uHTS hits from a small molecule inhibitors of human intestinal alkaline phosphatase via a luminescent assay. [Related pubchem assays (depositor defined):AID2544, AID2574]; type: functional
Cytochrome P450 2C19 = Cytochrome P450 2C19 (Homo sapiens, UniProt P33261); experiment: Cytochrome panel assay with activity outcomes. Panel member name: p450-cyp2c19 Compounds with AC50 equal or less than 10 uM are considered active; type: functional; settings: read-out: AC50
Cytochrome P450 2D6 = Cytochrome P450 2D6 (Homo sapiens, UniProt P10635);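 note: CYP2D6 member of a cytochrome P450 panel assay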
Cytochrome P450 2C9 = Cytochrome P450 2C9 (Homo sapiens, UniProt P11712)
Hexokinase = Hexokinase (Trypanosoma brucei, UniProt Q38C41); experiment: Confirmation assay for inhibitors of Trypanosoma brucei hexokinase 1-Analogue-first series. [Related pubchem assays (depositor defined):AID1430, AID1632, AID2516, AID2560, AID2579, AID2600, AID449725, AID492951]; type: functional
H4 = experiment: Luminescence Cell-Based Dose Response HTS to Identify Activators of 5'UTR Stem-Loop Driven Prion Protein mRNA Translation in H4 Neuroglioblastoma Cells. [Related pubchem assays: 1829 (Project Summary), 1814 (Primary HTS)]; type: functional; settings: Homo sapiens
[2] = target: NACHT, LRR and PYD domains-containing protein 3 (Homo sapiens, UniProt Q96P20); experiment: NALP3 inhibitors in yeast, dose response, luminescent (AID 488799); type: functional
[3] = Luminescence Cell-Based Dose Response HTS to Identify Activators of Luciferase Translation or Activity in H4 […] Cells. [Related pubchem assays: 1829 (Project Summary), 1814 (Primary HTS)]; type: functional
[4] = Luminescence Cell-Based Dose Confirmation HTS to Identify Activators of 5'UTR Stem-Loop Driven Alpha-Synuclein mRNA Translation in H4 Neuroglioblastoma Cells. [Related pubchem assays: 1829 (Project Summary), 1814 (Primary HTS)]; type: functional
[5] = Luminescence Cell-Based Dose Retest to Confirm Inhibitors of Cancer Stem Cells. [Related pubchem assays (depositor defined):AID2717, AID2721]; type: functional; settings: Homo sapiens
[6] = target: DNA damage-inducible transcript 3 protein (Mus musculus, UniProt P35639); type: functional, Cricetulus griseus
Hexokinase-1 = Hexokinase-1 (Homo sapiens, UniProt P19367); experiment: HK1 enzyme activation by HKDC1 hits – biochemical, selectivity assay for HKDC1 activator project, dose response (AID 504762); type: functional
Hexokinase HKDC1 = target: T1, Hexokinase HKDC1 (Homo sapiens, UniProt Q2TB90); experiment: activation of HKDC1 glucose phosphorylation – biochemical, W721R variant, dose response (AID 504730); type: functional
T1 sequence (Q2TB90 whole entry): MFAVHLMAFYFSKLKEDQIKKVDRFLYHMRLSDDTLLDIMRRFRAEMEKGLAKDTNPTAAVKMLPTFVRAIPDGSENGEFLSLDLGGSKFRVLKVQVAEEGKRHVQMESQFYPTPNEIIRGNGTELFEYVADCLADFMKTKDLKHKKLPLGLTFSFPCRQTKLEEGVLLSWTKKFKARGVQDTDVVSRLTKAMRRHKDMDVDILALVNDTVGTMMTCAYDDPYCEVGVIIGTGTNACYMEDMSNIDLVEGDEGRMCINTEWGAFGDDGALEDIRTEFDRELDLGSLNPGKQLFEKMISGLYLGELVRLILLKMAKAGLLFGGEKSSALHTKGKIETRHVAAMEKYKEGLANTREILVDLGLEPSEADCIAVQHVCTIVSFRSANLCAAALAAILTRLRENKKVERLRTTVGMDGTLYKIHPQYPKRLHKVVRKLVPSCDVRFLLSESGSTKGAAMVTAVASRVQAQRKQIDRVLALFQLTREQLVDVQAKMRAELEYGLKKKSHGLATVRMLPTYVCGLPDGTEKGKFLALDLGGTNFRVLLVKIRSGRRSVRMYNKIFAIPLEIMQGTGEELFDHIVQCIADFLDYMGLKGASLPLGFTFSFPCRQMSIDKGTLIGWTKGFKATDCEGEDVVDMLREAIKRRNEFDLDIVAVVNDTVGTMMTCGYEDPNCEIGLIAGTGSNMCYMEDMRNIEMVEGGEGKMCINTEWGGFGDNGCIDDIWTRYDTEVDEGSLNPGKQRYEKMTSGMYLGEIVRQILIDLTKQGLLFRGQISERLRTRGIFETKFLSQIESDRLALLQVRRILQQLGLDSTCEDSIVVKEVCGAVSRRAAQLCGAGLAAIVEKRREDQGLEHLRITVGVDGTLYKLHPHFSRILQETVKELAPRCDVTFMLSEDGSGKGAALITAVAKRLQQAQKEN

[7] = target: Voltage-dependent T-type calcium channel subunit alpha-1H (Homo sapiens, UniProt O95180); experiment: human CACNA1H calcium influx blockade – cell-based, synthetic library set 1, calcium flux (AID 493022); type: functional
[8] = target: T2, DNA dC->dU-editing enzyme APOBEC-3G (Homo sapiens, UniProt Q9HC16); type: functional
[9] = target: T3, DNA dC->dU-editing enzyme APOBEC-3A (Homo sapiens, UniProt P31941); experiment: Dose Response confirmation of small molecule APOBEC3A DNA Deaminase Inhibitors via a fluorescence-based single-stranded DNA deaminase assay. [Related pubchem assays (depositor defined):AID493011, AID493024]; type: functional
T-cell = experiment: loss of vesicle association with mouse CD8+ T cells – mouse 2C CD8+ T cells, flow cytometry, dose response (AID 485284); type: functional
[10] = target: G-protein coupled receptor 55 (Homo sapiens, UniProt Q9Y2T6); experiment: selective activators of receptor GPR55 – imaging, U2OS cells, beta-arrestin-GFP redistribution, primary screen (AID 1961); type: functional
[11] = NIH/3T3 cell viability loss – mouse embryonic fibroblasts, dry powder, set 2, cytotoxicity control, dose response (AID 493247); type: functional, cell-based; settings: Fibroblast
Coagulation factor XII = target: T4, Coagulation factor XII (Homo sapiens, UniProt P00748); experiment: activated coagulation factor XII inhibitor potency, concentration-effect curve, cell-free (AID 716); type: functional
T4 sequence (P00748 whole entry): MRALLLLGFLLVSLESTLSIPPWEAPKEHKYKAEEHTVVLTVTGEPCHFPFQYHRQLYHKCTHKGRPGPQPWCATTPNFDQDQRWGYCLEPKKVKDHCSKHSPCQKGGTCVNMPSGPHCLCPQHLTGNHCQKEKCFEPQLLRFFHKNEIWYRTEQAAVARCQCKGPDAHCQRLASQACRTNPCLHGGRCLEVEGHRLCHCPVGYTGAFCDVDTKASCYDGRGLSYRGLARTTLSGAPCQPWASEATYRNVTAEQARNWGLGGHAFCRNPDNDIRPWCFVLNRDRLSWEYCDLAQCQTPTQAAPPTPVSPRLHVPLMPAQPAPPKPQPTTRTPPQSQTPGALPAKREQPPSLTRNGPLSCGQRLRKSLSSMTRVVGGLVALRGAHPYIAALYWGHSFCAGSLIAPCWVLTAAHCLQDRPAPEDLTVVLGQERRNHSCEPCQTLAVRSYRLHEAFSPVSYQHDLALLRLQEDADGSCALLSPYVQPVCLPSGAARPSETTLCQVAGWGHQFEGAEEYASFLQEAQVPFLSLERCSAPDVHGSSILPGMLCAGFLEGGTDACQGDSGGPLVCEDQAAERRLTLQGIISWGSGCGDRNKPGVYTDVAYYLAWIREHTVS

[12] = target: T2, DNA dC->dU-editing enzyme APOBEC-3G; experiment: Dose Response confirmation of small molecule APOBEC3G DNA Deaminase Inhibitors via a fluorescence-based single-stranded DNA deaminase assay. [Related pubchem assays (depositor defined):AID493012, AID493028]; type: functional
[13] = target: T3, DNA dC->dU-editing enzyme APOBEC-3A; experiment: A3A deaminase inhibition for selectivity – biochemical, dose response (AID 504722); type: functional
CAAX prenyl protease 2 = CAAX prenyl protease 2 (Saccharomyces cerevisiae S288c, UniProt Q03530); type: biochemical
Trypsin = Trypsin (Sus scrofa, UniProt P00761); experiment: trypsin protease activity blockade – biochemical, quenched peptide fluorescence, cherry-pick, selectivity assay for Rce1 protease inhibitor project, dose response (AID 488789)
[14] = target: NACHT, LRR and PYD domains-containing protein 1 (Homo sapiens, UniProt Q9C000); experiment: NALP1 inhibitors in yeast, dose response, luminescent (AID 488860); type: functional
[15] = target: T5, Calpain-2 catalytic subunit (Sus scrofa, UniProt P43367); experiment: m-calpain protease blockers, concentration series – biochemical, fluorogenic peptide substrate, dose response (AID 1420); type: functional
T5 sequence (P43367 whole entry): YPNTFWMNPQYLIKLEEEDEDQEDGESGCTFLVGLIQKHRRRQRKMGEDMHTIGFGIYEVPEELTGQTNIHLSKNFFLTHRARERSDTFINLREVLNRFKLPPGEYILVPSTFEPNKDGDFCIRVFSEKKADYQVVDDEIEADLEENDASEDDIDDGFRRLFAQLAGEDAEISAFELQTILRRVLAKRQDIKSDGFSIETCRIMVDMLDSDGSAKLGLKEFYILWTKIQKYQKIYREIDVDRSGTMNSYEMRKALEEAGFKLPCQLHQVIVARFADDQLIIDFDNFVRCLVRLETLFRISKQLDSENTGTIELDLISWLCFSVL

Saccharomyces cerevisiae = experiment: S. cerevisiae Caspase-1/ASC signal blockers IC50, NALP1 inhibitor project selectivity test (AID 488863); type: functional, organism-based

T2 sequence (Q9HC16 whole entry): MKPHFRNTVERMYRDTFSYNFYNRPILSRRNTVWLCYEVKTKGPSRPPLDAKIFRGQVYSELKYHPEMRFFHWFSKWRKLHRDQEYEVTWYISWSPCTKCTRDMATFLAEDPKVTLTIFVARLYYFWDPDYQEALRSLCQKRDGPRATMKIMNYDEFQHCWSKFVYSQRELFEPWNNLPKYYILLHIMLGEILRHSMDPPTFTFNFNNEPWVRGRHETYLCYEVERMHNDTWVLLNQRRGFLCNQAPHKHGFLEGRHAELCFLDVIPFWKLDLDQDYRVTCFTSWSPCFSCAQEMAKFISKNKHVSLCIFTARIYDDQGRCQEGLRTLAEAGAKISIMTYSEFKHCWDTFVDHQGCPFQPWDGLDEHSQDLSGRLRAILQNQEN
T3 sequence (P31941 whole entry): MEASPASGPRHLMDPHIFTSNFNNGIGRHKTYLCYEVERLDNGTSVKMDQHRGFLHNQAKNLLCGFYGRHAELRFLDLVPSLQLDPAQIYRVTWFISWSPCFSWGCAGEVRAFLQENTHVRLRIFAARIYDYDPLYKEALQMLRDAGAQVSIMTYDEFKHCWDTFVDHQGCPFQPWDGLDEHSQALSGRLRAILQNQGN
Cytochrome P450 2C19, sequence (P33261 whole entry): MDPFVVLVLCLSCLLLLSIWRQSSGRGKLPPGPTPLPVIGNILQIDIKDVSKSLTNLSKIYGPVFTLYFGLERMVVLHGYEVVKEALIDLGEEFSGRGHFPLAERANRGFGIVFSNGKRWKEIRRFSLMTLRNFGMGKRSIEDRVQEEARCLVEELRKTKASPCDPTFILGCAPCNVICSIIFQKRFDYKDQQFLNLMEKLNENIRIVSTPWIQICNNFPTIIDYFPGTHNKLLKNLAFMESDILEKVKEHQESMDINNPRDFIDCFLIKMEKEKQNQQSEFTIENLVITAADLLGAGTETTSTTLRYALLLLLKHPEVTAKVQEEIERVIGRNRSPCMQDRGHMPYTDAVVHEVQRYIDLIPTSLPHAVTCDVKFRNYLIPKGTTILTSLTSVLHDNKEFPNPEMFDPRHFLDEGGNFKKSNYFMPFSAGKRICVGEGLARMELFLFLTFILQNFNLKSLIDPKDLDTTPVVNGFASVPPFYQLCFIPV
G-protein coupled receptor 55, sequence (Q9Y2T6 whole entry): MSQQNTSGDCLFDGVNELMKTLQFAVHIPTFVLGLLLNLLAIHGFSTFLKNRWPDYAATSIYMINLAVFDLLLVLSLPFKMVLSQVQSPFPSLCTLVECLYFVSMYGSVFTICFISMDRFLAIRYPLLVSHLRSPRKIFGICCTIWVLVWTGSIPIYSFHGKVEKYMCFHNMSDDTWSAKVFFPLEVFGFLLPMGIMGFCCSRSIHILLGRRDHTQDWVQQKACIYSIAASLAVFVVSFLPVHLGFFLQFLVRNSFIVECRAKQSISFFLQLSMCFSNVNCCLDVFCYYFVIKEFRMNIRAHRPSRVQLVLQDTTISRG
Hexokinase, sequence (Q38C41 whole entry): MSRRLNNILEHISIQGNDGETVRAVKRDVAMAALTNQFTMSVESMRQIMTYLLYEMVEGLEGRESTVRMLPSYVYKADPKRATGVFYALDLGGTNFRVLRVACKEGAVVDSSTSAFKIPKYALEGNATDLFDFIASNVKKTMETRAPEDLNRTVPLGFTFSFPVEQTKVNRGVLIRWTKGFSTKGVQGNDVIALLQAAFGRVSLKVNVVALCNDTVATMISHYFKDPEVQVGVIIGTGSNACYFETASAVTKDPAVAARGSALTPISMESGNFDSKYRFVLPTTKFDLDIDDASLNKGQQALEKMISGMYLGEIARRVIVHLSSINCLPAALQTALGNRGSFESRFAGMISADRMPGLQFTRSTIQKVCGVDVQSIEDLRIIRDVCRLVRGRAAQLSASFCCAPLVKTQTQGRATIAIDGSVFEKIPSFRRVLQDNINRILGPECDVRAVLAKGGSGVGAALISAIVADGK
Cytochrome P450 2C9, sequence (P11712 whole entry): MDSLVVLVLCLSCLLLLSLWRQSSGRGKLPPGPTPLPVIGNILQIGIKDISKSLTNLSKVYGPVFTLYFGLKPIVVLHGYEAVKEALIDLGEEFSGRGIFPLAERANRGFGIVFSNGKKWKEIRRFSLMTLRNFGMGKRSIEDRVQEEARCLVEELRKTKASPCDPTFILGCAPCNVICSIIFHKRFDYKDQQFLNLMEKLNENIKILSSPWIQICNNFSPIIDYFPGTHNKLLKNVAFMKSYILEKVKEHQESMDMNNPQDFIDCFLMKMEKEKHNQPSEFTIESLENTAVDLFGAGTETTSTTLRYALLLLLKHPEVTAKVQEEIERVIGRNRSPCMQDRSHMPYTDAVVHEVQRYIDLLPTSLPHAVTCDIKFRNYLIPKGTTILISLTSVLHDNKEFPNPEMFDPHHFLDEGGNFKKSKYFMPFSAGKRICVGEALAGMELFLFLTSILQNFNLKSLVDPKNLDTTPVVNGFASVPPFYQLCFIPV
Voltage-dependent T-type calcium channel subunit alpha-1H, sequence (O95180 whole entry): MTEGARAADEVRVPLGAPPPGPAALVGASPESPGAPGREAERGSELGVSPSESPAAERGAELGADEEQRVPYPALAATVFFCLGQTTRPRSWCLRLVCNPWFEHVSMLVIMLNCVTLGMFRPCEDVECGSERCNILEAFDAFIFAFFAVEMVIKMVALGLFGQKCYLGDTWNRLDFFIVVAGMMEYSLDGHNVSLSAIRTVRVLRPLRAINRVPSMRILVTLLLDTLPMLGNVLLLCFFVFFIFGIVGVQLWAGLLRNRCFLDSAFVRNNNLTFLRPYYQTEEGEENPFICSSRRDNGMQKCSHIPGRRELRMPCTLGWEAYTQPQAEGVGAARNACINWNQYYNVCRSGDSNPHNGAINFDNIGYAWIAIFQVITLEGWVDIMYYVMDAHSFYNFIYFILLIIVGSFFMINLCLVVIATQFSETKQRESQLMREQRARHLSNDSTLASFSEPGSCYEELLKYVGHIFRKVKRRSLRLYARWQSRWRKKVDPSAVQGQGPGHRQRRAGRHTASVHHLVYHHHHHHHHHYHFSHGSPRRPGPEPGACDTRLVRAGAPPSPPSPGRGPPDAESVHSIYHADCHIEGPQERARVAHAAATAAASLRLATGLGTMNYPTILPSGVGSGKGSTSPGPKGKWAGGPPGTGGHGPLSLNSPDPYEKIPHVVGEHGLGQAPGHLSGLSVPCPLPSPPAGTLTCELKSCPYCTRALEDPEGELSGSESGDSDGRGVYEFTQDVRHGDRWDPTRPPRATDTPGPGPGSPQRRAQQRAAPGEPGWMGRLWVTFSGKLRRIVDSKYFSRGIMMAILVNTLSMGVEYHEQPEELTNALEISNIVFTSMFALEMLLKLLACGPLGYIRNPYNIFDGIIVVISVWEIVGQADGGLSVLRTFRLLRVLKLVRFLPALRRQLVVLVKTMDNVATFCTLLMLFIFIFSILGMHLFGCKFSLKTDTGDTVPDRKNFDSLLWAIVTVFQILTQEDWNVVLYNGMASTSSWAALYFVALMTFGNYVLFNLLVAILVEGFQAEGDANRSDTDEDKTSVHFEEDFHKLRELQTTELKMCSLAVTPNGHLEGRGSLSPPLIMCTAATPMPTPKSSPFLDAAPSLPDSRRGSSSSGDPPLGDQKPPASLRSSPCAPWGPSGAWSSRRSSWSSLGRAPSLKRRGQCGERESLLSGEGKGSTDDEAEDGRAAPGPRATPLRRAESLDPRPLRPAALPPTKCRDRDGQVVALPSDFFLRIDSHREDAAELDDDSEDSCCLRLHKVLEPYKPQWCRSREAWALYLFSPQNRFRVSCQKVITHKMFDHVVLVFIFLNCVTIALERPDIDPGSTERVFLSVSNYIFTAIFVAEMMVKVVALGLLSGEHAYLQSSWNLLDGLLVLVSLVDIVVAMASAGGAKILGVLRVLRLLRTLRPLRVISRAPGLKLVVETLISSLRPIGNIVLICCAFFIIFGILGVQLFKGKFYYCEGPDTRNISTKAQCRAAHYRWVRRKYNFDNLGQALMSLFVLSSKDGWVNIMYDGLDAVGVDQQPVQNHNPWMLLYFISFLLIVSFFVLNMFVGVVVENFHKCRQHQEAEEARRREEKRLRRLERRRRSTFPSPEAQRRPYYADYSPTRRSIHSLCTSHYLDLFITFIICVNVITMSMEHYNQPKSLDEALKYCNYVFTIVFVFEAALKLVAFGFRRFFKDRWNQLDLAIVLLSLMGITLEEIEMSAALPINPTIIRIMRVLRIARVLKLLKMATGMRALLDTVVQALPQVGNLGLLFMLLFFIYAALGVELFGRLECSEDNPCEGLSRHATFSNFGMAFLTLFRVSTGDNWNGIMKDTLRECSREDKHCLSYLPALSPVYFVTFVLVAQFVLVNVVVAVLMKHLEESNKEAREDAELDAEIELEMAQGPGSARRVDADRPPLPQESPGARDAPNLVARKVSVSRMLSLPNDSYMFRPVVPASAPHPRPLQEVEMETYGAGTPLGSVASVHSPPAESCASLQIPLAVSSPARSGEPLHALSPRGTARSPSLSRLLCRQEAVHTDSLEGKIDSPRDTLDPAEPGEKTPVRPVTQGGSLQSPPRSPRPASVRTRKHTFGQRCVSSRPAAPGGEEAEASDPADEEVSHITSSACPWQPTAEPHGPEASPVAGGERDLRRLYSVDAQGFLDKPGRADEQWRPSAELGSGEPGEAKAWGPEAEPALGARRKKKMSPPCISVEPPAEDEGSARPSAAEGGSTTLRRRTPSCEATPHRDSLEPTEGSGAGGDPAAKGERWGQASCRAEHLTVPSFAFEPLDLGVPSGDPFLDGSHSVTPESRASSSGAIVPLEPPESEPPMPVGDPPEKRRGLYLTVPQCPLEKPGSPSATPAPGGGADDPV
CAAX prenyl protease 2, sequence (Q03530 whole entry): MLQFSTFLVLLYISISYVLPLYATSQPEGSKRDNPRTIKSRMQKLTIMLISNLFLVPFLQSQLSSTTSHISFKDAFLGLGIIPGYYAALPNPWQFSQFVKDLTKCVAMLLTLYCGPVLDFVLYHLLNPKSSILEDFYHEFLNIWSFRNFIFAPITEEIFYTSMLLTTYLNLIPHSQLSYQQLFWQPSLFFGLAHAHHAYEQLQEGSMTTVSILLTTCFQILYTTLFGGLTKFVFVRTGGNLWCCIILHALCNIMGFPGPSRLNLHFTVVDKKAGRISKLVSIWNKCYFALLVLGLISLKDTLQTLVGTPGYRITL

In the case of `O=c1c2c(-c3cccs3)csc2ncn1-c1ccc(Br)cc1`, the IC50 [1] is reported as > 100 µM (inactive), the AC50 (Cytochrome P450 2C19) is reported as 2.24 µM (inconclusive) and the AC50 (Cytochrome P450 2D6) is reported as 3.55 µM (inconclusive). For the same compound, the AC50 (Cytochrome P450 2C9) was 3.98 µM (inconclusive).

With `CC(C)(C)c1ccc(C(=O)Nc2cc(Cl)c(Cl)cc2C(=O)O)cc1` the IC50 (Hexokinase) was 1.36 µM (active).

For `COc1ccc(NC(=O)C#Cc2ccccc2)cc1`, the EC50 (H4) was 22.1 µM (active), the IC50 [2] was 8.01 µM (active) and the EC50 [3] was 32.6 µM (active). The EC50 [4] was 192 nM (active).

In the case of `NC(=O)CC(NC(=O)Cc1cccc2ccccc12)c1ccc(NCc2ccccc2)c([N+](=O)[O-])c1` (configuration not stated), the AC50 [5] is reported as 5.5 µM (active) and the “Absolute IC50 (CHOP)” value [6] is reported as 10 µM.

For `Cn1c(=O)c2c(nc(NN/C=C3/C(=O)NC(=S)N(C4CCCCC4)C3=O)n2C)n(C)c1=O`, the EC50 (Hexokinase-1) was 75.9 µM (inactive) and the EC50 (Hexokinase HKDC1) was > 80 µM (inactive).

For `O=C(COc1ccc(F)cc1)Nc1nnc(-c2ccc(F)cc2)o1`, the EC50 [7] was 10 µM (active).

In the case of `Cc1cc(N/N=C/c2ccc(O)cc2)nc(NS(=O)(=O)c2ccccc2)n1`, the IC50 [8] is reported as 72.6 µM (active) and the IC50 [9] is reported as 21.9 µM (active).

With `COc1ccc2c(c1)C1NC(S)=NC(C)(O2)C1C(=O)Nc1ccc(Cl)cc1` (configuration not stated) the EC50 (T-cell) was 31.3 µM (inactive).

With `CC(C)C[C@@H](COc1ccccc1)N1CCN(CCc2ccccc2)CCC1=O` the EC50 [10] was 2.69 µM (active).

With `COc1cc2c(cc1OC)CN(C(=O)C1CCCN(Cc3ccccc3)C1)CC2` (configuration not stated) the AC50 [11] was 52.7 µM (active).

In the case of `COc1ccccc1-n1c(S)nnc1CNC(=O)COc1ccccc1`, the IC50 (Coagulation factor XII) is reported as > 50 µM (inactive).

For `Sc1nnc(-c2ccc(Cl)cc2)n1CC1CCCO1` (configuration not stated), the IC50 [12] was 6.14 µM (active) and the IC50 [13] was > 100 µM (inactive).

For `COc1ccccc1-c1cc(C(F)(F)F)n2ncc(S(=O)(=O)c3ccccc3)c2n1`, the AC50 (CAAX prenyl protease 2) was 75.9 µM (active) and the AC50 (Trypsin) was 13.1 µM (active).

With `O=S(=O)(Nc1ccc(-n2cccc2)cc1)c1ccc(Cl)cc1Cl` the IC50 [14] was 18.3 µM (active), the IC50 [15] was 9.85 µM (not active) and the IC50 (Saccharomyces cerevisiae) was 56.8 µM (active).

From ChEMBL document CHEMBL1201862, “PubChem BioAssay data set” (2004)
